Test results: ChEMBL document CHEMBL1201862, “PubChem BioAssay data set” (2004)
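Cells were grown in 96-well plates and exposed to each compound for 48 hours at five concentrations; endpoints were interpolated linearly between bracketing concentrations, or set to the highest concentration if not reached. Abbreviation: GI50, concentration required for 50% inhibition of growth.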 Calls of active or inactive are those of the source. Cut-off read from the data, not from the text of the source: active = GI50 up to about 1.1 µM and inactive = higher.

Experiments:
Assay in all cases: growth of human tumour cells (NCI), 48 h
[1] = system: SK-MEL-2
[2] = system: OVCAR-4
[3] = system: SR
[4] = system: UACC-62
[5] = system: Malme-3M
[6] = system: SF-268
[7] = system: NCI-H23
[8] = system: HOP-18
[9] = system: UO-31
[10] = system: SK-OV-3
[11] = system: HOP-62
[12] = system: MOLT-4
[13] = system: LOX IMVI
[14] = system: HT-29
[15] = system: COLO 205
[16] = system: HCC 2998
[17] = system: SF-539
[18] = system: MDA-MB-231
[19] = system: MDA-N
[20] = system: T47D

Row | Compound | GI50 [1] | GI50 [2] | GI50 [3] | GI50 [4] | GI50 [5] | GI50 [6] | GI50 [7] | GI50 [8] | GI50 [9] | GI50 [10] | GI50 [11] | GI50 [12] | GI50 [13] | GI50 [14] | GI50 [15] | GI50 [16] | GI50 [17] | GI50 [18] | GI50 [19] | GI50 [20]
1 | O=C(CSc1nnc(-c2ccc(/N=C\c3ccc(Cl)cc3)cc2)o1)Nc1ccccc1 | > 100 µM (inactive) | > 100 µM (inactive) | 33.1 µM (inactive) | 73.8 µM (inactive) | > 100 µM (inactive) | 35.7 µM (inactive) | 50.2 µM (inactive) | 54.2 µM (inactive) | 98.4 µM (inactive) | > 100 µM (inactive) | > 100 µM (inactive) | 39.6 µM (inactive) | 19.6 µM (inactive) | 44.2 µM (inactive) | > 100 µM (inactive) | – | – | – | – | –
2 | O=C(O)Cc1cc(=O)oc2cc(O)c(Cl)cc12 | > 100 µM (inactive) | > 100 µM (inactive) | – | > 100 µM (inactive) | > 100 µM (inactive) | > 100 µM (inactive) | > 100 µM (inactive) | > 100 µM (inactive) | – | > 100 µM (inactive) | > 100 µM (inactive) | > 100 µM (inactive) | > 100 µM (inactive) | > 100 µM (inactive) | > 100 µM (inactive) | > 100 µM (inactive) | > 100 µM (inactive) | – | – | –
3 | CCc1nc2ccccc2c(=O)n1/N=C(\N=N\c1ccc(Cl)cc1)c1ccccc1 | 32.7 µM (inactive) | 23.5 µM (inactive) | – | 30.8 µM (inactive) | 38.6 µM (inactive) | 17.3 µM (inactive) | > 100 µM (inactive) | 12.5 µM (inactive) | 19.5 µM (inactive) | 23.7 µM (inactive) | 24.3 µM (inactive) | 28.1 µM (inactive) | 16.9 µM (inactive) | 15.7 µM (inactive) | 31.3 µM (inactive) | 29.2 µM (inactive) | 22.5 µM (inactive) | – | – | –
4 | CCOC(=O)CCC1(C(=O)OCC)CCCC1=O (stereo unspecified) | > 100 µM (inactive) | > 100 µM (inactive) | 25.4 µM (inactive) | > 100 µM (inactive) | > 100 µM (inactive) | > 100 µM (inactive) | > 100 µM (inactive) | > 100 µM (inactive) | > 100 µM (inactive) | > 100 µM (inactive) | > 100 µM (inactive) | > 100 µM (inactive) | 47.6 µM (inactive) | > 100 µM (inactive) | > 100 µM (inactive) | > 100 µM (inactive) | > 100 µM (inactive) | – | – | –
5 | Cc1ccc(NC(=O)CC(=O)n2nc(-c3ccccc3)c(/N=N\c3ccccc3[N+](=O)[O-])c2-c2ccccc2)cc1 | > 100 µM (inactive) | 45.3 µM (inactive) | > 100 µM (inactive) | > 100 µM (inactive) | 86.1 µM (inactive) | 51.2 µM (inactive) | > 100 µM (inactive) | > 100 µM (inactive) | > 100 µM (inactive) | 80.2 µM (inactive) | 82.2 µM (inactive) | > 100 µM (inactive) | 93.5 µM (inactive) | > 100 µM (inactive) | > 100 µM (inactive) | > 100 µM (inactive) | 37.2 µM (inactive) | – | – | –
6 | CC1(O)CCn2c(=O)c3cc4ccccc4cc3c(=O)n2C1O (stereo unspecified) | > 100 µM (inactive) | – | > 100 µM (inactive) | > 100 µM (inactive) | > 100 µM (inactive) | > 100 µM (inactive) | > 100 µM (inactive) | 26.8 µM (inactive) | – | > 100 µM (inactive) | > 100 µM (inactive) | > 100 µM (inactive) | > 100 µM (inactive) | > 100 µM (inactive) | > 100 µM (inactive) | > 100 µM (inactive) | > 100 µM (inactive) | – | – | –
7 | CC(=O)/C=C\C1CC2C=CC1C2 (stereo unspecified) | 49.2 µM (inactive) | 27.1 µM (inactive) | – | 58.3 µM (inactive) | 27.2 µM (inactive) | 25.8 µM (inactive) | 36.1 µM (inactive) | 96.6 µM (inactive) | 41 µM (inactive) | > 100 µM (inactive) | 92.3 µM (inactive) | 20.8 µM (inactive) | 14.1 µM (inactive) | – | 37.6 µM (inactive) | 24.3 µM (inactive) | 37.4 µM (inactive) | – | – | –
8 | CC(=O)O[C@H]1C(=O)[C@@]2(C)C(C(OC(=O)c3ccccc3)[C@]3(O)CC(OC(=O)C(O)C(NC(=O)c4ccc(C(F)(F)F)cc4)c4ccccc4)C(C)=C1C3(C)C)[C@]1(OC(C)=O)CO[C@@H]1C[C@@H]2O (stereo partly specified) | 0.0914 µM (active) | 8.77 µM (inactive) | 0.0264 µM (active) | 0.0723 µM (active) | 0.109 µM (active) | 0.157 µM (active) | 0.136 µM (active) | 0.836 µM (active) | – | 0.129 µM (active) | 0.0989 µM (active) | 0.0324 µM (active) | 0.156 µM (active) | 0.0565 µM (active) | 0.0706 µM (active) | 0.101 µM (active) | 0.166 µM (active) | – | – | –
9 | Cc1nc(C(N)=O)c(N)n1CCN1CCN(C(=O)CCCCCCCCCCNC2NC=Nc3[nH]cnc32)CC1 (stereo unspecified) | 14.3 µM (inactive) | – | 13.6 µM (inactive) | 29.8 µM (inactive) | 31.2 µM (inactive) | 41.7 µM (inactive) | 10.1 µM (inactive) | > 100 µM (inactive) | > 100 µM (inactive) | > 100 µM (inactive) | 91.6 µM (inactive) | 11.6 µM (inactive) | 33.1 µM (inactive) | > 100 µM (inactive) | 73.5 µM (inactive) | > 100 µM (inactive) | > 100 µM (inactive) | – | – | –
10 | Cc1ccc2nc3cc(C)c(=O)cc-3sc2c1 | > 100 µM (inactive) | 37.8 µM (inactive) | 17 µM (inactive) | 28.7 µM (inactive) | > 100 µM (inactive) | 81.1 µM (inactive) | 57.7 µM (inactive) | > 100 µM (inactive) | 67.3 µM (inactive) | > 100 µM (inactive) | > 100 µM (inactive) | 11.8 µM (inactive) | – | > 100 µM (inactive) | 94.8 µM (inactive) | > 100 µM (inactive) | > 100 µM (inactive) | – | – | –
11 | O=C1C(NCCc2ccc(O)c(O)c2)=CC(=O)c2ncccc21 | 3.1 µM (inactive) | 16.9 µM (inactive) | 9.98 µM (inactive) | 5.37 µM (inactive) | 4.95 µM (inactive) | 13.3 µM (inactive) | 7.36 µM (inactive) | – | 11.4 µM (inactive) | 15.7 µM (inactive) | 19.2 µM (inactive) | 8.51 µM (inactive) | 4.45 µM (inactive) | 30.3 µM (inactive) | 14.7 µM (inactive) | 13 µM (inactive) | 14.2 µM (inactive) | 5.14 µM (inactive) | 2.03 µM (inactive) | 22.7 µM (inactive)
12 | COc1ccc(C(c2ccccc2)N2C(=O)CCC2C(=O)O)cc1OC (stereo unspecified) | > 100 µM (inactive) | > 100 µM (inactive) | > 100 µM (inactive) | > 100 µM (inactive) | > 100 µM (inactive) | > 100 µM (inactive) | > 100 µM (inactive) | – | > 100 µM (inactive) | > 100 µM (inactive) | > 100 µM (inactive) | > 100 µM (inactive) | > 100 µM (inactive) | > 100 µM (inactive) | > 100 µM (inactive) | > 100 µM (inactive) | > 100 µM (inactive) | > 100 µM (inactive) | > 100 µM (inactive) | > 100 µM (inactive)
13 | C=C(C)/C=C/C(O)[C@](C)(O)[C@H]1[C@H](O)C[C@@]2(C)[C@@H]3CCc4c(cc(OC5OC(CO)C(O)C(O)C5O)c(O)c4C)C3(C)C(=O)C[C@]12C (stereo partly specified) | > 100 µM (inactive) | > 100 µM (inactive) | > 100 µM (inactive) | 49 µM (inactive) | > 100 µM (inactive) | > 100 µM (inactive) | 64.4 µM (inactive) | – | > 100 µM (inactive) | > 100 µM (inactive) | > 100 µM (inactive) | > 100 µM (inactive) | > 100 µM (inactive) | > 100 µM (inactive) | > 100 µM (inactive) | > 100 µM (inactive) | 96.4 µM (inactive) | > 100 µM (inactive) | > 100 µM (inactive) | > 100 µM (inactive)
14 | CC(=O)Nc1ccccc1-c1nc2ccccc2nc1C | > 100 µM (inactive) | > 100 µM (inactive) | > 100 µM (inactive) | > 100 µM (inactive) | > 100 µM (inactive) | > 100 µM (inactive) | > 100 µM (inactive) | > 100 µM (inactive) | 61.9 µM (inactive) | > 100 µM (inactive) | > 100 µM (inactive) | > 100 µM (inactive) | > 100 µM (inactive) | > 100 µM (inactive) | > 100 µM (inactive) | – | > 100 µM (inactive) | – | – | –
15 | NN=C1/C(=C\c2ccccc2)CCC/C1=C/c1ccccc1 | 36.6 µM (inactive) | 49.4 µM (inactive) | – | 40.3 µM (inactive) | 22.4 µM (inactive) | 34.3 µM (inactive) | 36.9 µM (inactive) | 63.4 µM (inactive) | 27.1 µM (inactive) | > 100 µM (inactive) | 32.8 µM (inactive) | 17.9 µM (inactive) | 26.2 µM (inactive) | – | 26.9 µM (inactive) | 35.6 µM (inactive) | 24.4 µM (inactive) | – | – | –
16 | COc1ccc(/C=C2\CCCC(C(NO)c3ccc(OC)cc3)C2=NO)cc1 (stereo unspecified) | 85.1 µM (inactive) | 29.5 µM (inactive) | – | 53 µM (inactive) | 34.1 µM (inactive) | 68.2 µM (inactive) | 38.6 µM (inactive) | 32.4 µM (inactive) | 28.8 µM (inactive) | > 100 µM (inactive) | 98.9 µM (inactive) | 23.1 µM (inactive) | – | 72.1 µM (inactive) | 44.3 µM (inactive) | 61.2 µM (inactive) | 27.5 µM (inactive) | – | – | –
